Literature values, collected in publication PMC5979345, “Identification of an ACE-Inhibitory Peptide from Walnut Protein and Its Evaluation of the Inhibitory Mechanism” (International Journal of Molecular Sciences, 2018).

Tests used:
ACE [1] = settings: identified from Stichopus horrens
Procedure: To further evaluate the active mechanism of the novel ACEI peptide, the inhibition pattern of the peptide, EPNGLLLPQY, against ACE was investigated by the Line weaver-Burk plot analysis method. […] When the EPNGLLLPQY was added to the r ...

ACE [2] = settings: from walnut protein digested by neutral proteinase As1.398, 45 °C, 5 h, pH 7.0
Procedure: In the present study, the peptide EPNGLLLPQY was identified from the hydrolysate of walnut protein digested by […]. Moreover, there were several reports related to the peptides from walnut protein hydrolysates with ACE-inhibitory activity.

Substance | Inhibition pattern (ACE [1]) | ACE-inhibitory activity (in words) (ACE [2])
EVSQGRP [food-derived peptide identified from Stichopus horrens] | mixed-type of inhibition | 
VSRHFASYAN [food-derived peptide identified from Stichopus horrens] | mixed-type of inhibition | 
LPGRPPIKPWPL |  | ACE-inhibitory peptides
SAAVGSP [food-derived peptide identified from Stichopus horrens] | mixed-type of inhibition | 
WPERPPQIP |  | ACE-inhibitory peptides
